Results: publication PMC4848466, “Insights into the activation mechanism of class I HDAC complexes by inositol phosphates” (Nature Communications, 2016)
“Also recorded” adds a separate entry of the source. Non-standard residues stand in square brackets, D forms with d. Residues, ends and D or L forms follow the SMILES beside them. *: point of attachment. Asu = N[C@@H](CCCCCC(=O)O)C(=O)O; NHOH = ON*

Columns and labels:
HDAC3:SMRT complex [1] = target: T1, HDAC3:SMRT complex (Homo sapiens, UniProt O15379+Q9Y618); assay: Activation of HDAC3:SMRT deacetylase activity by inositol phosphates (BOC-Lys-AMC assay); assay type: biochemical; conditions: for HDAC3 activation relative to maximal Ins(1,4,5,6)P4-stimulated activity / Kd: BOC-Lys-AMC assay; for HDAC3 activation relative to maximal Ins(1,4,5,6)P4-stimulated activity: titration / maximal activation; for Kd: one-site binding fit of HDAC activity vs inositol phosphate concentration, read-out: Kdapp (apparent Kd from activation titration)
T1 construct: Full-length HDAC3, and residues 350–480 of SMRT were cloned into pcDNA3 vectors; residues 350–480 of SMRT were cloned into pcDNA3 vectors; FLAG tag with TEV protease cleavage site (cleaved yes); made in house; host or cells: HEK293F cells (co-transfection, pcDNA3)
Procedure: (§1) To understand the stereochemical basis underlying the activation of HDAC3 by inositol phosphates we investigated the ability of a range of inositol phosphates and derivatives to enhance the activity of HDAC3 in deacetylase assays. To achieve this we used an assay based on the complex of HDAC3 with an extended SMRT construct which is stable in the absence of inositol phosphate.
(§2) HDAC activity of the protein complex was measured using an HDAC assay with a BOC-Lys-AMC substrate. 50 nM HDAC3:SMRT or 50 nM HDAC1:MTA1 was incubated with 100 μM BOC-Lys-AMC substrate in a final volume of 50 μl buffer A (50 mM Tris pH 7.5, 50 mM NaCl, 5% Glycerol), in a black 96-well plate for 30 min at 37 °C.
(§3) To test the ability of inositol phosphates and derivatives to activate the complex, 50 nM HDAC3:SMRT (which had been stripped of its endogenous co-purified inositol phosphate) or 50 nM HDAC1:MTA1 was incubated with inositol phosphate or analogue for 30 min at 37 °C before the HDAC activity was measured. All measurements were performed in triplicate and data analysed using GraphPad Prism (version 6.0, GraphPad Software, Inc).

HDAC3:SMRT [2] = target: T2, HDAC3:SMRT (Homo sapiens, UniProt O15379+Q9Y618); assay: Fluorescence anisotropy displacement of 2-FAM-Ins(1,3,4,5,6)P5; assay type: binding; parameters: Full-length HDAC3, and residues 350–480 of SMRT were cloned into pcDNA3 vectors; residues 350–480 of SMRT were cloned into pcDNA3 vectors; FLAG tag with TEV protease cleavage site (cleaved yes); made in house; host or cells: HEK293F cells (co-transfection, pcDNA3); conditions: fluorescence anisotropy competition
Procedure: The concentration of protein was determined as that which gave 100% bound in the protein titration experiments. The data were analysed and IC50 values calculated using GraphPad Prism (version 6.0).

HDAC1:MTA1 [3] = target: T3, HDAC1:MTA1 (Homo sapiens, UniProt Q13330+Q13547); assay: Inhibition of HDAC1:MTA1 by peptide-based inhibitor; assay type: biochemical
T3 construct: Full-length HDAC1 and residues 162–354 of MTA1 were cloned into pcDNA3 vectors; residues 162–354 of MTA1 were cloned into pcDNA3 vectors; FLAG tag with TEV protease cleavage site (cleaved yes); made in house; host or cells: HEK293F cells (co-transfection, pcDNA3)

HDAC3:SMRT [4] = target: T2, HDAC3:SMRT; assay: Fluorescence anisotropy direct binding of 2-FAM-Ins(1,3,4,5,6)P5; conditions: inhibitor bound at the active site
Procedure: When required, assays were performed in the presence of HDAC inhibitor (20 mM final concentration). Plates were mixed by shaking for 1 s, and measurements taken using a Victor X5 plate reader (Perkin Elmer) at room temperature with an excitation wavelength of 480 nm and an emission wavelength of 535 nm. Experiments were performed in triplicate and data were analysed using GraphPad Prism (version 6.0), Kd values were calculated by nonlinear curve fitting using a one-site binding (hyperbola) model (Y=Bmax*X/(Kd+X).
HDAC3:SMRT [5] = target: T2, HDAC3:SMRT; assay: Michaelis-Menten enzyme kinetics on Caliper EZ Reader with H4K16ac peptide; assay type: biochemical; parameters: Full-length HDAC3, and residues 350–480 of SMRT were cloned into pcDNA3 vectors; residues 350–480 of SMRT were cloned into pcDNA3 vectors; FLAG tag with TEV protease cleavage site (cleaved yes); made in house; host or cells: HEK293F cells (co-transfection, pcDNA3); conditions: H4 12–18K16ac peptide; in the presence of the inositol phosphate
Description: (§4) To explore further the differences between the two complexes we established a more physiological, real-time kinetic assay using substrates based on the tails of histones H4 and H3. The peptides tested were; H4 12–18(K16ac), H3 23–29(K27ac) and H3 6–12(K9ac). […] HDAC3:SMRT is most catalytically active against H3 23–29(K27ac) (Supplementary Fig. 7), whereas HDAC1:MTA1 is most catalytically active against H4 12–18(K16ac) (Fig. 4d). In both cases an approximate 3-fold greater kcat is observed for the preferred versus non-preferred substrate, in the absence of inositol phosphate. […] The net effect of both inositol phosphates tested was between a two and fivefold increase in catalytic efficiency (kcat/Km) (Fig. 4c,d, Supplementary Fig. 7).
(§5) Michaelis–Menten kinetics were determined using a HDAC assay on the Caliper EZ Reader II system (Caliper Life Sciences, http://www.caliperls.com). To assess the effect of inositol phosphate, 20 nM HDAC3:SMRT or 80 nM HDAC1:MTA1 were pre-mixed with InsP6 before dilution and addition of fluorescein-labelled H4K16Ac substrate. Reactions were carried out in duplicate in 30 μl reaction volumes, performed at room temperature in 50 mM Tris pH 7.5, 50 mM NaCl, 5% glycerol. Data was analysed using GraphPad Prism (version 6.0).

HDAC3:SMRT complex [6] = target: T4, HDAC3:SMRT complex (Homo sapiens, UniProt O15379); assay: Activation of HDAC3:SMRT deacetylase activity by inositol phosphates (BOC-Lys-AMC assay); assay type: biochemical; conditions: BOC-Lys-AMC assay; one-site binding fit of HDAC activity vs inositol phosphate concentration; read-out: Kdapp (apparent Kd from activation titration)
T4 construct: Full-length HDAC3, and residues 350–480 of SMRT were cloned into pcDNA3 vectors; residues 350–480 of SMRT were cloned into pcDNA3 vectors; FLAG tag with TEV protease cleavage site (cleaved yes); made in house; host or cells: HEK293F cells (co-transfection, pcDNA3)
Procedure: as §1, §2, §3

HDAC1:MTA1 complex = target: T5, HDAC1:MTA1 complex (Homo sapiens, UniProt Q13330+Q13547); assay: Activation of HDAC1:MTA1 deacetylase activity by inositol phosphates (BOC-Lys-AMC assay); assay type: biochemical; conditions: read-out: Kdapp (apparent Kd from activation titration)
T5 construct: Full-length HDAC1 and residues 162–354 of MTA1 were cloned into pcDNA3 vectors; residues 162–354 of MTA1 were cloned into pcDNA3 vectors; FLAG tag with TEV protease cleavage site (cleaved yes); made in house; host or cells: HEK293F cells (co-transfection, pcDNA3)
Procedure: as §2, §3

HDAC1:MTA1 [7] = target: T3, HDAC1:MTA1; assay: Michaelis-Menten enzyme kinetics on Caliper EZ Reader with H4K16ac peptide; assay type: biochemical; conditions: H4 12–18K16ac peptide; in the presence of the inositol phosphate
Description: as §4, §5

HDAC1 = target: T6, HDAC1 (UniProt Q13547 1-482); assay: crystal structure; HDAC1:MTA1 (co-expressed and co-purified, 5 mg/ml) co-crystallised with H4K16Hx at a 1:2 molar ratio; sitting drop, 20 °C, 0.1 M HEPES pH 7.5, 2 M ammonium sulfate, 5% PEG400; crystals frozen with 225 mM InsP6; 3.3 Å; conditions: both partners purified
T6 construct: Histone deacetylase 1 (HDAC1), full length, cloned into pcDNA3; Only handled as the co-expressed, co-purified complex with MTA1 162-354; also called histone deacetylase 1; source: HEK293F, co-transfected with the MTA1 construct, purified as the complex (FLAG resin, TEV elution, gel filtration)
T6 sequence (Q13547 whole entry): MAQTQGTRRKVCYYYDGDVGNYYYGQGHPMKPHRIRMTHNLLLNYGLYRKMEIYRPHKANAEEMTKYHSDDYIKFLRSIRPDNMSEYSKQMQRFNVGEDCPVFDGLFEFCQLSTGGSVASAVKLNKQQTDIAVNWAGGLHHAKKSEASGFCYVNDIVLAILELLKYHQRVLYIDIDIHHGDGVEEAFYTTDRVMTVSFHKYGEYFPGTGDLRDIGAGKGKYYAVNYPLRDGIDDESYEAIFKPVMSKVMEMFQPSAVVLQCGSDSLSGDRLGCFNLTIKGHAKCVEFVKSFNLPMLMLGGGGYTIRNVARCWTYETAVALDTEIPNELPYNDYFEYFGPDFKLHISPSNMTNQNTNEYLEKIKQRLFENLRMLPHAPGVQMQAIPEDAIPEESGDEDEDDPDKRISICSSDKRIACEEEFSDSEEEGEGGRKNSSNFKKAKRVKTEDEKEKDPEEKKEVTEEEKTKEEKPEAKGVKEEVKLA

T1 sequence (O15379 whole entry, the tested form may be a part): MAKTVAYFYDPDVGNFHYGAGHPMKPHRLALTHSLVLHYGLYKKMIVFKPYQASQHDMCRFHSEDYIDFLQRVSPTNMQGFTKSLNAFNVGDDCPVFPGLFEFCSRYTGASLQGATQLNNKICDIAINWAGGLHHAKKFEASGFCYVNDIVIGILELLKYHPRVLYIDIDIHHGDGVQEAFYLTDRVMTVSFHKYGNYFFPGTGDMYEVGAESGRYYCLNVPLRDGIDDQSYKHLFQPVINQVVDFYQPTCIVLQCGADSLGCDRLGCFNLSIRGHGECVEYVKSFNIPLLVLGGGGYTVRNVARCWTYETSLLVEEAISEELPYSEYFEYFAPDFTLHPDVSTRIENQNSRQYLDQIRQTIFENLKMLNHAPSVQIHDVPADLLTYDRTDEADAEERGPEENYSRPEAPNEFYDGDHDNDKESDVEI
T1 sequence (Q9Y618 350-480): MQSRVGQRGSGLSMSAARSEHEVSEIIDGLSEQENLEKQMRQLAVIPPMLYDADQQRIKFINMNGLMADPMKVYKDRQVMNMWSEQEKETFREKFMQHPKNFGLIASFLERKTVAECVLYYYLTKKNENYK
T2 sequence (O15379 whole entry, the tested form may be a part): as the sequence (O15379 whole entry, the tested form may be a part) above
T2 sequence (Q9Y618 350-480): as the sequence (Q9Y618 350-480) above
T3 sequence (Q13547 whole entry, one chain of several, the tested form may be a part): as the sequence (Q13547 whole entry) above
T5 sequence (Q13547 whole entry, one chain of several, the tested form may be a part): as the sequence (Q13547 whole entry) above
T4 sequence (O15379 whole entry, the tested form may be a part): as the sequence (O15379 whole entry, the tested form may be a part) above
T4 sequence (Q9Y618 350-480, further chain): as the sequence (Q9Y618 350-480) above

For `O=P(O)(O)O[C@@H]1[C@H](O)[C@H](O)[C@@H](OP(=O)(O)O)[C@H](OP(=O)(O)O)[C@H]1O` [Ins(1,4,5)P3], which “HDAC3 activation relative to maximal Ins(1,4,5,6)P4-stimulated activity” value (HDAC3:SMRT complex [1]) is on record?
Its value is “completely unable to activate HDAC3; also recorded: completely inert; also recorded: do not activate the complex”.

What about the IC50 (HDAC3:SMRT [2]; read-out: IC50 displacement of 2-FAM-Ins(1,3,4,5,6)P5) of the same molecule?
The IC50 was 19 µM.

What does the source list for `CC(=O)N[C@@H](CCCCN)C(=O)NCC(=O)NCC(=O)N[C@@H](C)C(=O)N[C@@H](CCCCCC(=O)NO)C(=O)N[C@@H](CCCNC(=N)N)C(=O)N[C@@H](Cc1c[nH]cn1)C(N)=O` [H4K16Hx] (Ac-KGGA[Asu](NHOH)RH-NH2)?
IC50 (HDAC1:MTA1 [3]): 0.336 µM; enhancement of the binding of 2-FAM-Ins(1,3,4,5,6)P5 to the allosteric site by inhibitor (HDAC3:SMRT [4]): more modest effect

With `O=P(O)(O)OC1C(O)C(O)C(O)C(OP(=O)(O)O)C1OP(=O)(O)O` (centres unmarked) [Ins(4,5,6)P3] as the molecule, how does the Kd (HDAC3:SMRT complex [1]) read?
Its Kd is 45 µM.

And the “HDAC3 activation relative to maximal Ins(1,4,5,6)P4-stimulated activity” value (HDAC3:SMRT complex [1])?
Its value is 85%.

How did the kcat (HDAC3:SMRT [5]) turn out when `O=P(O)(O)O[C@@H]1[C@@H](OP(=O)(O)O)[C@H](OP(=O)(O)O)[C@@H](O)[C@@H](O)[C@H]1OP(=O)(O)O` [Ins(1,4,5,6)P4, inositol 1,4,5,6-tetrakisphosphate] was run?
The kcat was 2.72 s⁻¹.

What about the Kd (HDAC3:SMRT complex [6]) of the same molecule?
Its Kd is 10 µM.

What about the Kd (HDAC1:MTA1 complex) of the same molecule?
Its Kd is 4.7 µM.

What about the kcat (HDAC1:MTA1 [7]) of the same molecule?
The kcat was 0.90 s⁻¹.

`Nc1ncnc2c1ncn2[C@@H]1O[C@H](CO)[C@@H](O[C@H]2O[C@H](CO)[C@@H](OP(=O)(O)O)[C@H](OP(=O)(O)O)[C@H]2O)[C@H]1OP(=O)(O)O` [adenophostin A] was tested. Which “HDAC activity as percentage of maximal Ins(1,4,5,6)P4 activity” value (HDAC3:SMRT complex [1]; compound tested at 200 μM) did it give?
Its value is “no activity; also recorded: neither activates HDAC3; also recorded: completely inert”.

And the “IC50 displacement of 2-FAM-Ins(1,3,4,5,6)P5” value (HDAC3:SMRT [2])?
The value was “nor competes for inositol phosphate binding”.

`O=P(O)(O)O[C@H]1[C@H](O)[C@H](O)[C@H](OP(=O)(O)O)[C@@H](OP(=O)(O)O)[C@@H]1O` [Ins(1,4,6)P3] was tested. Which “HDAC3 activation relative to maximal Ins(1,4,5,6)P4-stimulated activity” value (HDAC3:SMRT complex [1]) did it give?
Its value is “completely inert”.

With `O=P(O)(O)OC1C(O)C(OP(=O)(O)O)C(OP(=O)(O)O)C(OP(=O)(O)O)C1O` (centres unmarked) [Ins(1,3,5,6)P4] as the molecule, how does the Kd (HDAC3:SMRT complex [1]) read?
The Kd was 30 µM.

Which Kd (HDAC3:SMRT complex [1]) does the source give for `O=P(O)(O)OC1[C@H](O)[C@H](OP(=O)(O)O)C(OP(=O)(O)O)[C@H](OP(=O)(O)O)[C@H]1O` (some centres unmarked) [Ins(1,3,4,5)P4] here?
The Kd was 13 µM.

What about the “HDAC3 activation relative to maximal Ins(1,4,5,6)P4-stimulated activity” value (HDAC3:SMRT complex [1]) of the same molecule?
The value was “greater than 75%”.

B1: MTA1 residues 162-354 (domain or fragment, UniProt Q13330 162-354, looked up)
chain: ADKGEIRVGNRYQADITDLLKEGEEDGRDQSRLETQVWEAHNPLTDKQIDQFLVVARSVGTFARALDCSSSVRQPSLHMSAAAASRDITLFHAMDTLHKNIYDISKAISALVPQGGPVLCRDEMEEWSASEANLFEEALEKYGKDFTDIQQDFLPWKSLTSIIEYYYMWKTTDRYVQQKRLKAAEAESKLKQV
notes: MTA1, residues 162-354, cloned into pcDNA3 with a FLAG tag and TEV protease cleavage site; The complex was eluted from the FLAG resin with TEV protease; source: HEK293F, co-transfected with HDAC1, purified as the complex (FLAG resin, TEV elution, gel filtration)
Does B1 bind (HDAC1)?
Result: binds
